Measurements: US6432711B1, “Embryonic stem cells capable of differentiating into desired cell lines” (Diacrin, Inc., priority 1993, dated 2002)

Key:
Type in all cases: cell-based
[1] = test system: embryonic stem cells (ES-D3); experiment: Differentiation of embryonic stem cell aggregates into contracting muscle cells by dimethylsulfoxide induction; conditions: 1% (by volume) dimethylsulfoxide in DMEM plus 10% horse serum, aggregates cultured 5 days in multi-well dishes
From the text: Undifferentiated embryonic stem cells (ES-D3, purchased from the American Type Culture Collection as ATCC catalog no. ATCC CRL 1934) are maintained in supplemented Dulbecco's modified Minimal Essential Medium as described in Example 1. The embryonic stem cells then are trypsinized and washed free of LIF and placed in 1% (by volume) dimethylsulfoxide in DMEM plus 10% horse serum. Two days after the addition of dimethylsulfoxide and plating of cells in Petri dishes to form aggregates, the aggregates are collected and resuspended in fresh medium plus 1% dimethylsulfoxide. The aggregates are then plated onto multi-well untreated culture grade dishes without trypsin treatment. One aggregate is plated per well. The aggregates are cultured for 5 days. Upon culturing of the cells in multi-well dishes, cell cultures in which greater than 80% of the aggregates contain contracting muscle cells are obtained. Such cells may be used to treat cardiomyopathies, myocardial infarction, congestive heart failure, or muscular dystrophy.

[2] = test system: D3 and E14 TG2a embryonic stem cell lines transfected with mouse MyoD cDNA; experiment: Differentiation of MyoD-transfected embryonic stem cell lines into muscle after dimethylsulfoxide induction
Procedure: For transfection of embryonic stem cells with mouse MyoD cDNA, both the D3 (ATCC catalog no. CRL 1934) and E14 TG2a (ATCC catalog no. CRL 1821) embryonic stem cell lines were used. Embryonic stem cells were cultured as described in Robertson, 1987, except that the cells were maintained in media containing 5 ng/ml human recombinant leukemia inhibitory factor instead of on feeder layers.
Embryonic stem cells were co-transfected with pKJ1-Neo (Dinsmore, et al., Cell, Vol. 64, pgs. 817-826 (1991)), which carries the neomycin resistance gene for selection of stable transfectants, and with pEMCII (Davis, et al., Cell, Vol. 51, pgs. 987-1000 (1987)), which contains a portion of the mouse MyoD cDNA. pKJ1-Neo was linearized at the unique NsiI site and pEMCII was linearized at the unique ScaI site. In order to introduce the linearized plasmids into the embryonic stem cells, the embryonic stem cells were electroporated using a Gene Pulser (Bio Rad) in 0.4 cm gap distance electroporation cuvettes with the Gene Pulser set at 240 volts, 500μ Farads. […]
Stable transfectants were isolated, expanded, frozen, and then stored in liquid nitrogen. […] The percentage of cells that differentiated into skeletal muscle was greater than 90% as assessed by staining for muscle specific myosin, and by the ability of these cells to fuse and form myotubes that spontaneously twitch. […]

[3] = test system: embryonic stem cells (ES-E14TG2a); experiment: Differentiation of embryonic stem cells into neuronal cells by retinoic acid induction; conditions: 0.5 μM retinoic acid, aggregates induced four days in DMEM plus 10% FBS, then cultured 5 days in stem cell medium on poly-D-lysine
From the text: Undifferentiated embryonic stem cells (ES-E14TG2a, purchased from the American Type Culture Collection, catalog no. ATCC CRL 1821) are maintained in Dulbecco's modified Minimal Essential Medium (DMEM) supplemented with glutamine, β-mercaptoethanol, 10% (by volume) horse serum, and human recombinant Leukemia Inhibitory Factor (LIF). The LIF replaces the need for maintaining embryonic stem cells on feeder layers of cells, and is essential for maintaining embryonic stem cells in an undifferentiated state.
In order to promote the differentiation of the embryonic stem cells into neuronal cells, the embryonic stem cells are trypsinized and washed free of LIF, and placed in DMEM supplemented with 10% (by volume) fetal bovine serum (FBS). After resuspension in DMEM and 10% FBS, 1×10^6 cells are plated in 5 ml DMEM plus 10% FBS plus 0.5 μM retinoic acid in a 60 mm Fisher brand bacteriological grade Petri dish. In such Petri dishes, embryonic stem cells cannot adhere to the dish, and instead adhere to each other, thus forming small aggregates of cells. Aggregation of cells aids in enabling proper cell differentiation. After two days, aggregates of cells are collected and resuspended in fresh DMEM plus 10% FBS plus 0.5 μM retinoic acid, and replated in Petri dishes for an additional two days. […]

SMILES | percentage of aggregates that contain contracting muscle cells [1] | cell types obtained after induction ([2]; MyoD transformants expressing very low amounts of MyoD, indistinguishable from non-transfected embryonic stem cells) | percentage of cells that differentiated into skeletal muscle ([2]; cell lines expressing high amounts of MyoD, staining for muscle specific myosin, fusion into twitching myotubes) | percentage of cells in the culture that are neuronal cells [3]
C[S+](C)[O-] [dimethylsulfoxide] | greater than 80% | mix of cardiac, smooth, and skeletal muscle | greater than 90% | –
CC1=C(/C=C/C(C)=C/C=C/C(C)=C/C(=O)O)C(C)(C)CCC1 [retinoic acid] | – | – | – | greater than 90%
